{"source": "paper PMC12735921", "about": "“Evaluation of Antiproliferative Activity and Molecular Modeling Studies of Some Novel Benzimidazolone-Bridged Hybrid Compounds” (Pharmaceuticals, 2025)", "assay_type_in_all_cases": "cell-based, human", "key": {"[1]": {"system": "MCF-7 cells", "assay": "MTT cell viability assay, MCF-7", "summary_of_the_method": "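Cells exposed to compounds at 0.5–200 µM for 48 h in DMEM with 10% FBS at 37 °C, 5% CO2; formazan dissolved in DMSO and read at 570 nm. Cytotoxicity relative to untreated control; IC50 from four-parameter logistic fit, mean of three independent measurements, triplicate samples.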"}, "[2]": {"system": "MCF-7 cells", "assay": "LDH leakage assay, MCF-7", "details": "MCF-7, IC50 concentration of compound, 48 h; H2O2 positive control; mean ± SD, n = 3", "protocol": "One hundred microliters of culture medium was transferred to a new 96-well plate. One hundred microliters of LDH reaction solution was added to each well, and absorbance was measured at 490 nm using an ELISA plate reader (BMG Labtech, Ortenberg, Germany) after 30 min."}, "[3]": {"system": "HeLa cells", "assay": "Intracellular GSH/GSSG ratio, HeLa", "details": "IC50 concentration of compound, 48 h, H2O2 positive control, mean ± SD, n = 3", "protocol": "(§1) Intracellular reduced (GSH) and oxidized (GSSG) glutathione levels were measured using the GSH/GSSG Ratio Detection Assay Kit (Cayman Chemical, Ann Arbor, MI, USA, Cat. No: 703002) according to the manufacturer’s protocol. […] After treatment, cells were washed with cold PBS and lysed with MES buffer provided in the kit.\n(§2) To prevent oxidation of GSH to GSSG during processing, samples were deproteinized using the supplied metaphosphoric acid solution and neutralized accordingly. Total glutathione and GSSG levels were measured separately by adding the appropriate buffers and reagents to the wells of a 96-well plate, followed by the addition of DTNB recycling reagent and glutathione reductase. Absorbance was read at 405 nm using a microplate reader (BMG Labtech, Germany). The amount of GSH was calculated by subtracting 2 × GSSG from the total glutathione, and the GSH/GSSG ratio was used to assess intracellular redox status."}, "[4]": {"system": "A549 cells", "assay": "Intracellular GSH/GSSG ratio, A549", "details": "A549, IC50 concentration of compound, 48 h; H2O2 positive control; mean ± SD, n = 3", "protocol": "as §1, §2"}, "[5]": {"system": "MCF-7 cells", "assay": "Intracellular GSH/GSSG ratio, MCF-7", "details": "MCF-7, IC50 concentration of compound, 48 h; H2O2 positive control; mean ± SD, n = 3", "protocol": "as §1, §2"}, "[6]": {"system": "HeLa cells", "assay": "Cell cycle analysis (PI staining, flow cytometry), HeLa", "details": "IC50 concentration, 48 h, mean ± SEM, n = 3", "protocol": "(§3) Cell cycle distribution was assessed by propidium iodide (PI) staining and flow cytometry. HeLa, MCF-7, and A549 cells were seeded in 6-well plates at a density of 1 × 10^5 cells per well and allowed to attach overnight. […] Following exposure, both adherent and floating cells were collected, washed twice with cold phosphate-buffered saline (PBS, pH 7.4), and fixed overnight in 70% cold ethanol at 4 °C. After fixation, the cells were centrifuged and resuspended in 500 µL of PI/RNase staining solution containing 50 µg/mL PI and 100 µg/mL RNase A (Sigma-Aldrich®, St. Louis, MO, USA), followed by incubation in the dark for 30 min at 37 °C. The stained samples were analyzed using a Muse™ Cell Analyzer (Merck, Millipore, Germany) equipped with a 488 nm excitation laser and a 617 nm emission filter. A minimum of 10,000 events per sample were acquired after exclusion of debris and doublets via FSC-A vs. FSC-H gating. The DNA content histograms were generated automatically, and cell populations were expressed as percentages of G0/G1, S, and G2/M phases using the Muse™ Cell Cycle Analysis Software 1.5.0.0. All assays were conducted in triplicate biological repeats (n = 3), and results were reported as mean ± SEM."}, "[7]": {"system": "MCF-7 cells", "assay": "Cell cycle analysis (PI staining, flow cytometry), MCF-7", "details": "MCF-7, IC50 concentration, 48 h, mean ± SEM, n = 3", "protocol": "as §3"}}, "note": "“And” between values parts separate entries of the source, which are not always exact repeats. Equal entries are not always repeated.", "data": [{"molecule": "O=C(O)Cn1c(=O)n(CC(=O)O)c2cc(Cl)c(Cl)cc21", "note": "[Compound 6, 2,2′-(5,6-Dichloro-2-oxo-1H-benzo[d]imidazole-1,3(2H)-diyl)diacetic Acid]", "values": [{"measurement": "IC50", "setting": "[1]; Homo sapiens, MCF7, MTT, 48 h, mean ± SD, n = 3", "result": "28.3 ± 1.63", "unit": "µM"}, {"measurement": "MCF-7 Selectivity Index (SI)", "setting": "[1]; SI = IC50 (HEK 293)/IC50 (MCF-7)", "result": 2.21}, {"measurement": "LDH", "setting": "[2]", "result": "22.7 ± 1.8 µU/mL and 22.7 ± 1.8 ^a,b µU/mL"}, {"measurement": "GSH/GSSG", "setting": "[3]", "result": "10.6 ± 1.1"}, {"measurement": "GSH/GSSG", "setting": "[4]", "result": "11.2 ± 1.0 nmol/mg Protein and 11.2 ± 1.0 ^a,b nmol/mg Protein"}, {"measurement": "GSH/GSSG", "setting": "[5]", "result": "12.1 ± 1.2 nmol/mg Protein and 12.1 ± 1.2 ^a,b nmol/mg Protein"}, {"measurement": "cells in G0/G1 phase", "setting": "[6]", "result": "42.3 ± 2.3", "unit": "%"}, {"measurement": "cells in G2/M phase", "setting": "[6]", "result": "32.9 ± 1.6", "unit": "%"}, {"measurement": "cells in S phase", "setting": "[6]", "result": "24.8 ± 1.5", "unit": "%"}, {"measurement": "cells in G0/G1 phase", "setting": "[7]", "result": "66.1 ± 1.9", "unit": "%"}, {"measurement": "cells in G2/M phase", "setting": "[7]", "result": "14.9 ± 1.3", "unit": "%"}, {"measurement": "cells in S phase", "setting": "[7]", "result": "19.0 ± 1.4", "unit": "%"}]}]}
